Format in all cases: cell-based
For one test, the target named is T1, human TLR8 (Homo sapiens, UniProt Q9NR97).
T1 construct: host or cells: HEK293 (HEK-Blue hTLR8)
T1 sequence (Q9NR97 27-1041): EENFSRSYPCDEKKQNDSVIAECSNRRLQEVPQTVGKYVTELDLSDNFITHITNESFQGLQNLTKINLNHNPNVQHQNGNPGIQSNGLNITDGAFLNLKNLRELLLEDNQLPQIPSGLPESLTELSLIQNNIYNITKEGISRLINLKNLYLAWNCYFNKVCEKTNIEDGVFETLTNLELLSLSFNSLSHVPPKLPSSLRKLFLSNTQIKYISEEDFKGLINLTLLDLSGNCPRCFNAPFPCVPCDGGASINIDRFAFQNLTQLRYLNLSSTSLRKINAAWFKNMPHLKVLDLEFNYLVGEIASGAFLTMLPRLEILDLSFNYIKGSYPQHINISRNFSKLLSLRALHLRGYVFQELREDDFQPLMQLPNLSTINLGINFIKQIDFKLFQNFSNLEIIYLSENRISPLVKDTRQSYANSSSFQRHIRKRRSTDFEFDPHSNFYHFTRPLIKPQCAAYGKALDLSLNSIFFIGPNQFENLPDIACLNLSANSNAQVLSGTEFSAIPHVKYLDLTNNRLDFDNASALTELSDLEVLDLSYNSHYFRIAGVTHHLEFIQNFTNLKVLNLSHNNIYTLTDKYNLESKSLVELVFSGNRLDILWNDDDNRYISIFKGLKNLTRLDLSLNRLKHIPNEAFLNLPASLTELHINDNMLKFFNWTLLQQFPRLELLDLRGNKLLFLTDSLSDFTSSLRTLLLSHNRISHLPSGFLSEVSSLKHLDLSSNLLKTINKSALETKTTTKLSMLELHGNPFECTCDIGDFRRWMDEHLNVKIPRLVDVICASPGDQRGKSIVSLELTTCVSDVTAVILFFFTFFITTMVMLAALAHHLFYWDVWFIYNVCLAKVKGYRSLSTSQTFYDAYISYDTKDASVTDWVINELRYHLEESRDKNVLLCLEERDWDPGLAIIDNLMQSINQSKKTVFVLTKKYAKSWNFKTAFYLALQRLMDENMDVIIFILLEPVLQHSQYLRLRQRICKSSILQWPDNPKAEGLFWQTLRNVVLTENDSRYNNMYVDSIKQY
Description: HEK-Blue hTLR8 reporter cell assay (SEAP, NF-kB/AP-1) for stimulation of human TLR8. Particulars: HEK-Blue hTLR8 cells, 24 h incubation, SEAP readout; read-out: TLR8_EC50. In outline:
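HEK293 cells carrying hTLR8 and a SEAP reporter driven by NF-κB/AP-1 sites were seeded at 3.10E4 cells/well and held 18 to 24 h at 37° C., 5% CO2 before compound addition. Supernatant SEAP measured with QUANTI-Blue™.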

A further test relates to IFN-α2a. As to the kind of experiment: IFN-α2a cytokine activation in human PBMC (MSD assay). As for the experimental part: (§1) The other below tests involving measuring the in vitro activity of some compounds of the disclosure on cytokines IFN-α2a, IL-6, IL29 and TNF-α were carried out using human PBMC (PBMCs).
(§2) The activity described below, with respect to TLR7, TLR8, IFN-α2a, IL-6, IL29 and TNF-α, is given by the half maximal effective concentration (EC50), which corresponds to the concentration required to obtain a 50% of the activation. The lower the EC50, the less the concentration of the compound is required to produce 50% of maximum activation and the higher the potency.
(§3) In Vitro Assay to Determine IFN-α2a, IL-6, IL29 and TNF-α Cytokine Activation:
(§4) Peripheral blood mononuclear cells were isolated by Ficoll density gradient centrifugation from peripheral blood samples obtained from healthy donors (EFS). Isolated PBMCs are washed twice with PBS and resuspended in RPMI-1640 medium supplement with 10% fetal bovine serum (FBS) at 5.10^5 cells/well in a 96-well plate. The cells were then incubated with the compounds to test at various doses (20 μM to 4.8.10-6 μM final) for 24 h at 37° C., 5% CO2. After 24 h treatment, the plates are centrifuged and the supernatant were collected and assayed for cytokines IFN-α2a, IL-6, IL29 and TNF-α using the Meso Scale Discovery (MSD) assay platform according to the manufacturer's instructions. Briefly, 25 μL of cell culture supernatants were incubated for 1 h at Room Temperature (RT) in custom Multi-Spot 96-well plates prior coated with capture antibodies. After washing, SULFO-TAG® labeled detection antibodies were added to each of the wells and incubated for 1 h RT before adding a read buffer.

Another test has as its system IL-6. As to the kind of experiment: IL-6 cytokine activation in human PBMC (MSD assay). Particulars: read-out: IL6 EC50. As for the experimental part:
as §1, §2, §3, §4

The test system of another test is IL29. As to the kind of experiment: IL29 cytokine activation in human PBMC (MSD assay). As for the experimental part:
as §1, §2, §3, §4

A further test has as its system TNF-α. As to the kind of experiment: TNF-α cytokine activation in human PBMC (MSD assay). As for the experimental part: as §1, §2, §3, §4

Here are results for twelve molecules from patent publication US12583861B2, “Derivatives of imidazo[4,5-d]pyridazine, their preparation and their therapeutic application” (SANOFI, priority 2021, dated 2026).

pEC50: −log10 of the molar value. Read-outs that look alike come from different tables or passages of the source.

For `CCCCc1nc2c(N)nnc(OCC)c2n1Cc1ccc(OC)cc1` [Compound 48, 2-butyl-7-ethoxy-1-(4-methoxybenzyl)-1H-imidazo[4,5-d]pyridazin-4-amine], the pEC50 on human TLR8 is less than 4.70; in the test on IFN-α2a (Homo sapiens, PBMC, 24 h), 7.05; in the test with IL-6 (Homo sapiens, PBMC, 24 h), 6.43; in the test with IL29 (Homo sapiens, PBMC, 24 h) it was 7.00; in the test on TNF-α (Homo sapiens, PBMC, 24 h), 6.04.

For `CCCCc1nc2c(N)nnc(OC(C)C)c2n1Cc1ccc(CN)cc1` [Compound 22, 1-(4-(aminomethyl)benzyl)-2-butyl-7-isopropoxy-1H-imidazo[4,5-d]pyridazin-4-amine 2,2,2-trifluoroacetate], the pEC50 was 5.58 at human TLR8; 10.00 in the test on IFN-α2a (24 h, 2,2,2-trifluoroacetate); 6.78 in the test with IL-6 (24 h, 2,2,2-trifluoroacetate); 10.00 in the test on IL29 (24 h, 2,2,2-trifluoroacetate); 5.55 with TNF-α (24 h, 2,2,2-trifluoroacetate).

Take `C=C(C)c1nnc(N)c2nc(CCCC)n(Cc3ccc(OC)cc3)c12` [Compound 17, 2-butyl-1-(4-methoxybenzyl)-7-(prop-1-en-2-yl)-1H-imidazo[4,5-d]pyridazin-4-amine]: the pEC50 is less than 4.70 on human TLR8; 7.77 in the test with IFN-α2a (Homo sapiens, PBMC, 24 h); 6.73 with IL-6 (Homo sapiens, PBMC, 24 h); 7.54 with IL29 (Homo sapiens, PBMC, 24 h); less than 4.70 in the test on TNF-α (Homo sapiens, PBMC, 24 h).

Turning to `CCCCc1nc2c(N)nnc(SC(C)C)c2n1Cc1ccc(OC)cc1` [Compound 3, 2-butyl-7-(isopropylthio)-1-(4-methoxybenzyl)-1H-imidazo[4,5-d]pyridazin-4-amine], the pEC50 on human TLR8 was less than 4.70; with IFN-α2a (Homo sapiens, PBMC, 24 h), 7.21; in the test with IL-6 (Homo sapiens, PBMC, 24 h), 5.85; in the test with IL29 (Homo sapiens, PBMC, 24 h), 7.08; in the test with TNF-α (Homo sapiens, PBMC, 24 h), 5.55.

With `CCCCc1nc2c(N)nnc(OC(C)C)c2n1C[C@H]1CCC[C@@H](N)C1` (racemic) [Compound 23, 1-(((1S,3R)-3-aminocyclohexyl)methyl)-2-butyl-7-isopropoxy-1H-imidazo[4,5-d]pyridazin-4-amine (and enantiomer)], the pEC50 was 4.83 at human TLR8; 8.52 with IFN-α2a (Homo sapiens, PBMC, 24 h); 6.69 in the test on IL-6 (Homo sapiens, PBMC, 24 h); 8.52 in the test on IL29 (Homo sapiens, PBMC, 24 h); 5.26 in the test on TNF-α (Homo sapiens, PBMC, 24 h).

`CCCCc1nc2c(N)nnc(OC3CCCC3)c2n1Cc1ccc(OC)cc1` [Compound 9, 2-butyl-7-(cyclopentyloxy)-1-(4-methoxybenzyl)-1H-imidazo[4,5-d]pyridazin-4-amine]: the pEC50 at human TLR8 was less than 4.70; in the test with IFN-α2a (Homo sapiens, PBMC, 24 h) it was 7.80; with IL-6 (Homo sapiens, PBMC, 24 h), 6.83; in the test on IL29 (Homo sapiens, PBMC, 24 h), 7.82; with TNF-α (Homo sapiens, PBMC, 24 h) it was 6.42.

With `CCCCc1nc2c(N)nnc(C(C)C)c2n1Cc1ccc(OC)cc1` [Compound 18, 2-butyl-7-isopropyl-1-(4-methoxybenzyl)-1H-imidazo[4,5-d]pyridazin-4-amine], the pEC50 on human TLR8 is less than 4.70; in the test with IFN-α2a (Homo sapiens, PBMC, 24 h), 7.15; in the test with IL-6 (Homo sapiens, PBMC, 24 h), 6.26; in the test on IL29 (Homo sapiens, PBMC, 24 h), 6.96; in the test with TNF-α (Homo sapiens, PBMC, 24 h) it was 5.55.

`C=CCOc1nnc(N)c2nc(CCCC)n(Cc3ccc(OC)cc3)c12` [Compound 6, 7-(allyloxy)-2-butyl-1-(4-methoxybenzyl)-1H-imidazo[4,5-d]pyridazin-4-amine]: the pEC50 is less than 4.70 at human TLR8; 6.95 with IFN-α2a (Homo sapiens, PBMC, 24 h); 6.48 in the test with IL-6 (Homo sapiens, PBMC, 24 h); 7.21 in the test with IL29 (Homo sapiens, PBMC, 24 h); 6.19 in the test with TNF-α (Homo sapiens, PBMC, 24 h).

`CCCCc1nc2c(N)nnc(OC(C)C)c2n1Cc1ccc(C=O)cc1` [Compound 34, 4-((4-amino-2-butyl-7-isopropoxy-1H-imidazo[4,5-d]pyridazin-1-yl)methyl)benzaldehyde]: the pEC50 at human TLR8 was less than 4.70; with IFN-α2a (Homo sapiens, PBMC, 24 h) it was 7.44; with IL-6 (Homo sapiens, PBMC, 24 h) it was 7.12; with IL29 (Homo sapiens, PBMC, 24 h), 7.55; with TNF-α (Homo sapiens, PBMC, 24 h) it was 6.18.

In the case of `CCCCc1nc2c(N)nnc(N3CCC(c4ccccc4)C3)c2n1C` (stereo not drawn) [Compound 89, 2-butyl-1-methyl-7-(3-phenylpyrrolidin-1-yl)-1H-imidazo[4,5-d]pyridazin-4-amine], the pEC50 on human TLR8 was 5.12; with IFN-α2a (Homo sapiens, PBMC, 24 h), 6.67; with IL-6 (Homo sapiens, PBMC, 24 h) it was 6.33; in the test with IL29 (Homo sapiens, PBMC, 24 h), 6.67; in the test on TNF-α (Homo sapiens, PBMC, 24 h), 5.63.

With `CCCCc1nc2c(N)nnc(OC(C)C)c2n1Cc1ccc(CN)cc1` [Compound 21, 1-(4-(aminomethyl)benzyl)-2-butyl-7-isopropoxy-1H-imidazo[4,5-d]pyridazin-4-amine], the pEC50 on human TLR8 was 5.86; in the test with IFN-α2a (24 h) it was 9.40; in the test with IL-6 (24 h), 8.10; in the test on IL29 (24 h), 9.52; with TNF-α (24 h), 6.55.

Take `CCCCc1nc2c(N)nnc(-c3cc[nH]c3)c2n1Cc1ccc(OC)cc1` [Compound 14, 2-butyl-1-(4-methoxybenzyl)-7-(1H-pyrrol-3-yl)-1H-imidazo[4,5-d]pyridazin-4-amine]: the pEC50 at human TLR8 was less than 4.70; with IFN-α2a (Homo sapiens, PBMC, 24 h) it was 7.74; in the test with IL-6 (Homo sapiens, PBMC, 24 h) it was 6.97; with IL29 (Homo sapiens, PBMC, 24 h) it was 7.70; with TNF-α (Homo sapiens, PBMC, 24 h), 6.15.
